Test results from patent US10745360B2, “Quinoxaline compounds, method for preparing the same and use thereof” (Development Center for Biotechnology, priority 2014, dated 2020).

Tests used:
[1] = biological target: T1, B-Raf kinase (Homo sapiens, UniProt P15056); assay: B-Raf kinase assay ([33P] incorporation into MEK1 K97R); type: biochemical; settings: recombinant B-Raf, 8 μM ATP, 30 min, 30° C.; read-out: IC50 ranking against B-Raf kinase
T1 construct: purchased Upstate Biotechnology
Procedure: Inhibition of kinase activity by a test compound disclosed herein was estimated by quantifying the amount of [^33P] incorporation of a substrate in the presence of the test compound. Standard assay conditions were 5 ng of recombinant B-Raf kinase (Upstate Biotechnology) with 500 ng MEK1(Map-erk kinase; K97R) in the assay buffer (8 μM ATP, 0.5 μCi [^33P]ATP (specific activity 3000 Ci/mmol, PerkinElmer), 50 mM Tris/HCl (pH 7.5), and 1 mM EGTA, 1 mM Na3VO4, 1% 2-mercaptoethanol, 0.1% Brij 35, and 0.2 mg/ml BSA) in a final volume of 25 μL. Reactions were incubated at 30° C. for 30 min and stopped by adding 3% phosphoric acid, harvested onto a 96-well GF/B UniFilter (PerkinElmer) using a unifilter harvester (PerkinElmer), and counted with a TopCount microplate scintillation counter (PerkinElmer). The IC50 values of inhibitors were determined after carrying out assays at 3-fold serially diluted concentrations of each compound in duplication. The results were analyzed using linear regression software (GraphPad Prism 4; GraphPad Software Inc.).

[2] = biological target: T2, C-Raf kinase (Homo sapiens, UniProt P04049); assay: C-Raf kinase assay ([33P] incorporation into MEK1 K97R); type: biochemical; settings: recombinant C-Raf, 8 μM ATP, 30 min, 30° C.; read-out: IC50 ranking against C-Raf kinase
T2 construct: purchased Upstate Biotechnology
Procedure: (§1) Inhibition of kinase activity by a test compound disclosed herein was estimated by quantifying the amount of [^33P] incorporation of a substrate in the presence of the test compound. Standard assay conditions were 2 ng of recombinant C-Raf kinase (Upstate Biotechnology) with 500 ng MEK1(K97R) in assay buffer (8 μM ATP, 0.5 μCi [^33P]ATP (specific activity 3000 Ci/mmol, PerkinElmer), 50 mM Tris/HCl (pH 7.5), and 1 mM EGTA, 1 mM Na3VO4, 1% 2-mercaptoethanol, 0.1% Brij 35, and 0.2 mg/ml BSA), and the test compound (diluted with 4% DMSO) or DMSO alone (as a control) in a final volume of 25 μL. Reactions were incubated at 30° C. for 30 min and stopped by adding 3% phosphoric acid, harvested onto a 96-well GF/B UniFilter (PerkinElmer) using a unifilter harvester (PerkinElmer), and counted with a TopCount microplate scintillation counter (PerkinElmer). The IC50 values of inhibitors were determined after carrying out assays at 3-fold serially diluted concentrations of each compound in duplication. The results were analyzed using linear regression software (GraphPad Prism 4; GraphPad Software Inc.).

[3] = system: B-Raf^V600E mutant COLO205 colon cancer cell; assay: Cell proliferation assay (CELLTITER 96), COLO205; type: cell-based; settings: Homo sapiens, COLO 205; COLO205, 72 hours; read-out: Cytotoxicity (IC50 Ranking) COLO205 (B-Raf^V600E)
Procedure: (§2) Inhibition of cell growth by compounds was measured using CELLTITER 96® assay. The cytotoxicity of compounds was evaluated in B-Raf^V600E mutant A375 melanoma cell, B-Raf^V600E mutant COLO205 colon cancer cell, and SK-MEL-2 melanoma cell with wild type B-Raf (B-Raf^wt) and NRASQ^Q61R mutation. A375 and COLO205 cell line were cultured in DMEM containing 10% FCS and incubated at 37° C. in 5% CO2 atmosphere. SK-MEL-2 cell line was cultured in MEM containing 10% FCS and incubated at 37° C. in 5% CO2 atmosphere. A375, COLO205 and SK-MEL-2 cell were seeded into 96-well plates at 2000, 2000, and 4000 cells/well, respectively, and allowed to adhere for overnight. Then, these seeded cells were treated with increasing concentrations of the test compounds and incubated for another 72 hours. At the end of the incubation, CELLTITER 96® Aqueous One Solution Reagent (Promega) was added and incubated for 4 hours. Cell viability was determined by measuring absorbance at 490 nm using EMAX® microplate reader (Molecular Devices).
(§3) The 50% inhibitory concentration (IC50) value was calculated by plotting the percentage of growth inhibition against the concentration of compound, using GraphPad Prism5 software for curve fitting.

[4] = biological target: T3, B-Raf^V600E kinase (Homo sapiens, UniProt P15056, V600E); assay: B-Raf V600E kinase assay ([33P] incorporation into MEK1 K97R); type: biochemical; settings: recombinant B-Raf^V600E, 8 μM ATP, 30 min, 30° C.; read-out: IC50 ranking against B-Raf^V600E kinase
T3 construct: purchased Upstate Biotechnology
Procedure: as §1, with “were 5” for “were 2”, “recombinant B-Raf^V600E” for “recombinant C-Raf”, “ng MEK1 (K97R)” for “ng MEK1(K97R)”

[5] = system: SK-MEL-2 melanoma cell with wild type B-Raf (B-Raf^wt) and NRAS^Q61R mutation; assay: Cell proliferation assay (CELLTITER 96), SK-MEL-2; type: cell-based; settings: Homo sapiens; SK-MEL-2, 72 hours; given as bound; read-out: Cytotoxicity (IC50 Ranking) SK-MEL-2 (NRAS^Q61R, B-Raf^wt)
Procedure: as §2, §3

[6] = system: B-Raf^V600E mutant A375 melanoma cell; assay: Cell proliferation assay (CELLTITER 96), A375; type: cell-based; settings: Homo sapiens, A-375; A375, 72 hours; read-out: Cytotoxicity (IC50 Ranking) A375 (B-Raf^V600E)
Procedure: as §2, §3

T1 sequence (P15056 whole entry): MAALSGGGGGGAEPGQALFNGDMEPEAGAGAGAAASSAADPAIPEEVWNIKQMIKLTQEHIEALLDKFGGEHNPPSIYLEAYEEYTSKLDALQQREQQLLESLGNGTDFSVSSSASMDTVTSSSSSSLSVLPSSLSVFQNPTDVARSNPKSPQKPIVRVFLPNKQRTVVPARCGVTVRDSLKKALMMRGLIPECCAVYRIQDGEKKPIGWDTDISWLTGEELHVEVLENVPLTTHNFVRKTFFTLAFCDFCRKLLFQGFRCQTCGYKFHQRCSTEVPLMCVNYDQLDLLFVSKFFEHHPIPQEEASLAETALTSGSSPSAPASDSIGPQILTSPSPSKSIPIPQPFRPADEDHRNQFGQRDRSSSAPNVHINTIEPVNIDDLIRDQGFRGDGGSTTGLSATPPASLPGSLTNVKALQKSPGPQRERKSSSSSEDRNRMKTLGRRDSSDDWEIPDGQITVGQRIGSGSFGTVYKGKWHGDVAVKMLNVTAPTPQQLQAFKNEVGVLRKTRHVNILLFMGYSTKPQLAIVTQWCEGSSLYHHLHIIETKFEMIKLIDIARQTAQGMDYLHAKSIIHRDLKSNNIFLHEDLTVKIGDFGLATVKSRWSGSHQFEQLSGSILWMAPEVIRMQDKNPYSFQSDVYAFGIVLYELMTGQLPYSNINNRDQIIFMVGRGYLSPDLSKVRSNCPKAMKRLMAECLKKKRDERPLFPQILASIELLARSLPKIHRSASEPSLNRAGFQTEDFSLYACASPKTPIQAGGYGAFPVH
T3 sequence (P15056 whole entry V600E): as the sequence (P15056 whole entry) above, with V600E counted along it
T2 sequence (P04049 whole entry): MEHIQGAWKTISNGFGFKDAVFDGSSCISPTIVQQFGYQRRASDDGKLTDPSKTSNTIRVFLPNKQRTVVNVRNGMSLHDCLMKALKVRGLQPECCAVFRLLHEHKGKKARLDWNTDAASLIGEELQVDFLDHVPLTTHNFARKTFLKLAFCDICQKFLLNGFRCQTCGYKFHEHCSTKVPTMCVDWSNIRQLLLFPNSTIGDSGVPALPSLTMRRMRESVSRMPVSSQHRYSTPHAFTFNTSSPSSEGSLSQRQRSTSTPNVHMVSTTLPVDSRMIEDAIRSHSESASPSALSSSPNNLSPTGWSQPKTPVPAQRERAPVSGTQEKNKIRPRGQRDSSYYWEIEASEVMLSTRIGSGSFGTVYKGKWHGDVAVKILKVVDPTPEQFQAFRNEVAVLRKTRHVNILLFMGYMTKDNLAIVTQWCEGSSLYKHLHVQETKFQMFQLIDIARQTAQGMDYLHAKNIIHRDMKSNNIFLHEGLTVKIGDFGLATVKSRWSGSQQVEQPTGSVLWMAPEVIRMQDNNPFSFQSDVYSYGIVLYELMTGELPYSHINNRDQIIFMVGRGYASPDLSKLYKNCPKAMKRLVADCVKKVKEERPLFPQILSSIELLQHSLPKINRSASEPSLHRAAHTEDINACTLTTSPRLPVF

| IC50 [1] [nM] | IC50 [2] [nM] | IC50 [4] [nM] | Structure (SMILES) | IC50 [3] [nM] | IC50 [5] [µM] | IC50 [6] [nM] |
| --- | --- | --- | --- | --- | --- | --- |
| 300 to 1000 | 300 to 1000 | 300 to 1000 | COc1cnc2ccc(Nc3c(F)ccc(NS(C)(=O)=O)c3F)c([N+](=O)[O-])c2n1 [compound 14, N-{2,4-difluoro-3-[(3-methoxy-5-nitro-6-quinoxalinyl)amino]phenyl}methanesulfonamide] | 1000 to 10000 | > 10 | 1000 to 10000 |
| < 300 | < 300 | < 300 | CCCS(=O)(=O)Nc1ccc(F)c(Nc2ccc3ncc(O)nc3c2C#N)c1F [compound 15, N1-{3-[(5-cyano-3-hydroxy-6-quinoxalinyl)amino]-2,4-difluorophenyl}-1-propanesulfonamide] | 300 to 1000 | > 10 | 300 to 1000 |
| < 300 | < 300 | < 300 | CCCS(=O)(=O)Nc1ccc(F)c(Nc2ccc3ncc(OCCN4CCOCC4)nc3c2C#N)c1F [compound 16, N1-(3-{[5-cyano-3-(2-morpholinoethoxy)-6-quinoxalinyl]amino)-2,4-difluorophenyl)-1-propanesulfonamide] | < 300 | > 10 | < 300 |
| < 300 | < 300 | < 300 | CCCS(=O)(=O)Nc1ccc(F)c(Nc2ccc3ncc(OCC)nc3c2C#N)c1F [compound 17, N-(3-(5-cyano-3-ethoxyquinoxalin-6-ylamino)-2,4-difluorophenyl)propane-1-sulfonamide] | < 300 | > 10 | < 300 |
| < 300 | < 300 | < 300 | CCCS(=O)(=O)Nc1ccc(F)c(Nc2ccc3ncc(N(C)C)nc3c2C#N)c1F [compound 18, N-(3-(5-cyano-3-(dimethylamino)quinoxalin-6-ylamino)-2,4-difluorophenyl)propane-1-sulfonamide] | < 300 | > 10 | < 300 |
| < 300 | < 300 | < 300 | CCCS(=O)(=O)Nc1ccc(F)c(Nc2ccc3ncc(N4CCOCC4)nc3c2C#N)c1F [compound 19, N-(3-(5-cyano-3-morpholinoquinoxalin-6-ylamino)-2,4-difluorophenyl)propane-1-sulfonamide] | < 300 | > 10 | < 300 |
| < 300 | < 300 | < 300 | CCCS(=O)(=O)Nc1ccc(F)c(Nc2ccc3ncc(NC)nc3c2C#N)c1F [compound 20, N-(3-(5-cyano-3-(methylamino)quinoxalin-6-ylamino)-2,4-difluorophenyl)propane-1-sulfonamide] | < 300 | > 10 | < 300 |
| < 300 | < 300 | < 300 | CCCS(=O)(=O)Nc1c(F)ccc(Nc2ccc3ncc(OC)nc3c2C#N)c1F [compound 21, N-(3-(5-cyano-3-methoxyquinoxalin-6-ylamino)-2,6-difluorophenyl)propane-1-sulfonamide] | < 300 | > 10 | < 300 |
| < 300 | < 300 | < 300 | CCCS(=O)(=O)Nc1cc(Nc2ccc3ncc(OC)nc3c2C#N)ccc1F [compound 22, N-(5-(5-cyano-3-methoxyquinoxalin-6-ylamino)-2-fluorophenyl)propane-1-sulfonamide] | < 300 | > 10 | < 300 |
| 300 to 1000 | 1000 to 10000 | 300 to 1000 | CCCS(=O)(=O)Nc1ccc(F)c(Nc2ccc3ncc(N4CCOCC4)nc3c2C#N)c1 [compound 23, N-(3-(5-cyano-3-morpholinoquinoxalin-6-ylamino)-4-fluorophenyl)propane-1-sulfonamide] | < 300 | > 10 | < 300 |
